Measurements from US20040006236A1, “Diaminopropionic acid derivatives” (priority 1999, published 2004).
Where two headings read alike, the source gives them in different places.

How the values were obtained:
[1] = molecular target: T1, LFA-1 binding to immobilized ICAM-1 (Homo sapiens, UniProt P05107+P20701); experiment: LFA-1/ICAM-1 protein-protein assay (solid-phase ELISA); conditions: read-out: LFA-1/ICAM-1 Protein-Protein Assay IC50
T1 construct: made in house; host or cells: transfected 293 cells (LFA-1)
T1 sequence (P20701 26-1170): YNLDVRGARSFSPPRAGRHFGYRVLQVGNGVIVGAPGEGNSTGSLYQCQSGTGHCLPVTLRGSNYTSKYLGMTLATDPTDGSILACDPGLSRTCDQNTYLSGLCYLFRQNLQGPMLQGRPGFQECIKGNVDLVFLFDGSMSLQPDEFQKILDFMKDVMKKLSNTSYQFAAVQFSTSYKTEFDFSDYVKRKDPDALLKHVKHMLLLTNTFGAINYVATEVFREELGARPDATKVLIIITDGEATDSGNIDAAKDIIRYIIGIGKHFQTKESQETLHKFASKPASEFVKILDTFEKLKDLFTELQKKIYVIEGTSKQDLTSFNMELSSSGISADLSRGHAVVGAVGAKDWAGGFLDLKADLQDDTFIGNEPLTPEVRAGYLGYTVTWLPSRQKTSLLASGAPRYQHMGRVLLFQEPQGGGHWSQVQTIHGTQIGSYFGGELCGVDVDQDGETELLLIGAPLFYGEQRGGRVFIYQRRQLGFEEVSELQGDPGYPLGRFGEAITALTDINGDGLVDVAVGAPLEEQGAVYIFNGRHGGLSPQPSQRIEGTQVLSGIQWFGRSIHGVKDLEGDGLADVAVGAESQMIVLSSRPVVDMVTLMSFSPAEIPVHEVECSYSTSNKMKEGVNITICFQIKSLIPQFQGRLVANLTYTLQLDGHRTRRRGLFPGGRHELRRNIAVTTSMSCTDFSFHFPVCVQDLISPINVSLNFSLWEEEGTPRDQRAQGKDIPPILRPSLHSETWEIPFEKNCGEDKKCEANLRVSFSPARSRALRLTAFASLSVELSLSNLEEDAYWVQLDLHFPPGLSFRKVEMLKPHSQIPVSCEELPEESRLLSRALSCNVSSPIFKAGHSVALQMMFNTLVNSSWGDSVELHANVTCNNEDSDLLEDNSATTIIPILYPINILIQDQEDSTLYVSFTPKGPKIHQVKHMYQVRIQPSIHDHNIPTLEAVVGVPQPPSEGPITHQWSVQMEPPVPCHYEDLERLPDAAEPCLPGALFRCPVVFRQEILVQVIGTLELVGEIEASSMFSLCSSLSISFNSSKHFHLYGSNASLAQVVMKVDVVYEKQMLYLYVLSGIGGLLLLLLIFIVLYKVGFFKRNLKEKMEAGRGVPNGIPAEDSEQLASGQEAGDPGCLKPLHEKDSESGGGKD
T1 sequence (P05107 23-769): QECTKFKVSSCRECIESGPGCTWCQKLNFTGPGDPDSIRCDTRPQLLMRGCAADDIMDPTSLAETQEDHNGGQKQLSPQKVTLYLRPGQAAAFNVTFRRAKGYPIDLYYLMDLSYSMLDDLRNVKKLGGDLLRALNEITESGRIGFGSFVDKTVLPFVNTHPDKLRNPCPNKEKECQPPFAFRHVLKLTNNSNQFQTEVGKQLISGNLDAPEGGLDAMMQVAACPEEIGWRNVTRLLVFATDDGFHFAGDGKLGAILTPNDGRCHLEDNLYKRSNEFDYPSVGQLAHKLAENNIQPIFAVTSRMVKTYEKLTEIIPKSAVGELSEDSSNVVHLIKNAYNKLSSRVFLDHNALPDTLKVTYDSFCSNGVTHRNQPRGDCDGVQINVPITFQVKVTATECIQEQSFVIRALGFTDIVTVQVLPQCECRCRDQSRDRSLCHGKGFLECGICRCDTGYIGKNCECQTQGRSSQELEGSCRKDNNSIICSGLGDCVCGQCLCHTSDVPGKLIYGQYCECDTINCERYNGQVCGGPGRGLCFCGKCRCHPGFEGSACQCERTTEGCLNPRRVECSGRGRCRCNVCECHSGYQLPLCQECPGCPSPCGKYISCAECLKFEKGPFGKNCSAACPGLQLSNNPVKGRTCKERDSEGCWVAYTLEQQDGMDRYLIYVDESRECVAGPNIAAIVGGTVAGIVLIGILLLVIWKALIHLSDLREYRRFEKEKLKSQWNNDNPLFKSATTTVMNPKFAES
In short: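 Human 5dICAM-Ig (ICAM-1 extracellular domain–IgG Fc) coated on plates; membrane-bound LFA-1 from transfected 293 cells (280 ng/mL) added with compound in Mn2+-containing HEPES buffer pH 7.2, 2 h at 37° C. Bound LFA-1 detected via anti-β2 antibody and HRP/TMB at 450 nm; IC50s determined.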

[2] = test system: cell-surface Mac-1 adhesion to immobilized fibrinogen (HL-60 cells); experiment: Mac-1/Fibrinogen cell-based screening assay; parameters: species or system human; conditions: read-out: Mac-1/Fgn Cell based Assay IC50
Experimental: Cellular Mac-1/Fibrinogen antagonist activity, defined as the ability to inhibit cell-surface Mac-1 adhesion to immobilized fibrinogen, was quantitated by a cell based assay. Human fibrinogen was coated onto 96 well microtiter plates (1 μg in 100 μL TBS) overnight at 4° C. The plates were then blocked with 150 μL of 10% polyvinyl pyrrolidone (PVP) in TBS for 1 h at 37° C. Plates were washed 3 times (150 μL each) with TBS. […] A ten-fold excess of volume of the same buffer was added and cells were centrifuged. The medium was decanted and cells were resuspended at a concentration of 2×10^6 cells/mL in RPMI/0.05% BSA/0.2 mM MnCl2. Stock solutions (10 mM in DMSO) of test compounds were diluted to 2.5 mM with DMSO. […] Each sample was further diluted 50-fold with RPMI/0.05% BSA/0.2 mM MnCl2. Equal volumes of labeled cells were then added to assay tubes containing diluted compounds. […] Cells were incubated for 10 min at 37° C. with gentle shaking, then dispensed (100 μL per well) onto fibrinogen coated plates and incubated for 30 min at 37° C./5% CO2. Unbound cells were gently washed with TBS two times.

[3] = test system: T lymphocyte proliferation (C57BI/6 spleen cells with irradiated BALB/c spleen cells); experiment: Mixed lymphocyte reaction (MLR), one-way; type: cell-based, mice; conditions: read-out: MLR IC50
Source text: Admixture of murine spleen cells from two different inbred strains of mice induces proliferation of T lymphocytes. The magnitude of T cell proliferation depends on the extent of disparity in the major histocompatibility antigens between the two strains. Splenic T lymphocytes from both strains proliferate due to alloantigen recognition, a process for which the interaction of ICAM-1 on antigen-presenting cells with LFA-1 on lymphocytes is necessary. The ability of antagonists to inhibit T lymphocyte proliferation following recognition of alloantigens was assessed in a one-way MLR, where cells from one strain were irradiated to permit measurement of the proliferative response of cells from the other strain. Spleen cells were washed three times in tissue culture medium (TCM; see below). […] One hundred microliters of serial dilutions of antagonists or TCM were added to the spleen cell mixture. The total volume in each well was 200 μL. TCM was RPMI1640 containing 10% heat-inactivated fetal bovine serum, […] L-glutamine, 100 Units/ml each of penicillin and streptomycin and 5×10^−5 M 2-mercaptoethanol. Dilutions of antagonists were prepared in TCM. Plates were incubated in 5% CO2 for 3 days. On the third day, 0.5 μCi of tritiated thymidine (10 μCi/mL) was added to all the wells. Cells were harvested 6 h later on a 96-well plate harvester and the amount of tritiated thymidine incorporated was assessed in a liquid scintillation counter.

[4] = Homo sapiens, HL-60, HL-60 cells

Compound	IC50 [1] [µM]	IC50 [2, 4] [µM]	IC50 ([3]; Mus musculus, T-lymphocyte) [µM]	IC50 ([2]; HL-60 cells) [µM]	IC50 [3] [µM]
O=C(NC[C@H](NC(=O)c1ccc(C(O)CCc2cccc(O)c2)cc1Cl)C(=O)O)c1cccs1 (mixture of isomers) [Example 320]	0.001	0.064	0.145	–	–
O=C(NCc1cccc(O)c1)c1ccc(C(=O)N[C@@H](CNC(=O)c2cc(Br)cc(Br)c2)C(=O)O)c(Cl)c1 [Example 228, N-[2-chloro-4-[[[(3-hydroxyphenyl)methyl]amino]carbonyl]benzoyl]-3-(3,5-dibromobenzoyl)amino-L-alanine]	0.0071	0.149	5	–	–
O=C(NCc1cccc(O)c1)c1ccc(C(=O)N[C@@H](CNC(=O)c2cc(F)cc(C(F)(F)F)c2)C(=O)O)c(Cl)c1 [Example 260]	0.0054	0.33	1.95	–	–
O=C(NCc1cccc(O)c1)c1ccc(C(=O)N[C@@H](CNC(=O)[C@@H]2CSCN2)C(=O)O)c(Cl)c1 [Example 267]	0.0029	0.071	0.49	–	–
O=C(NCc1cccc(O)c1)c1ccc(C(=O)N[C@@H](CNC(=O)[C@@H]2C[C@@H](O)CN2)C(=O)O)c(Cl)c1 [Example 268]	0.0017	0.148	0.9	–	–
NCCCCCCCCCCC(=O)NC[C@H](NC(=O)c1ccc(C(=O)NCc2cccc(O)c2)cc1Cl)C(=O)O [Example 270]	0.0079	0.357	4.75	–	–
N[C@@H](Cc1ccc([N+](=O)[O-])cc1)C(=O)NC[C@H](NC(=O)c1ccc(C(=O)NCc2cccc(O)c2)cc1Cl)C(=O)O [Example 271]	0.0038	0.547	4.1	–	–
N[C@@H](Cc1ccc(OCc2c(Cl)cccc2Cl)cc1)C(=O)NC[C@H](NC(=O)c1ccc(C(=O)NCc2cccc(O)c2)cc1Cl)C(=O)O [Example 273]	0.0074	1.74	12	–	–
N[C@H](Cc1c[nH]c2ccccc12)C(=O)NC[C@H](NC(=O)c1ccc(C(=O)NCc2cccc(O)c2)cc1Cl)C(=O)O [Example 276]	0.0069	0.235	7.25	–	–
CC(C)C[C@H](N)C(=O)NC[C@H](NC(=O)c1ccc(C(=O)NCc2cccc(O)c2)cc1Cl)C(=O)O [Example 277]	0.0043	0.282	8.7	–	–
CCCC[C@H](N)C(=O)NC[C@H](NC(=O)c1ccc(C(=O)NCc2cccc(O)c2)cc1Cl)C(=O)O [Example 278]	0.0085	0.311	13.5	–	–
CN[C@@H](C)C(=O)NC[C@H](NC(=O)c1ccc(C(=O)NCc2cccc(O)c2)cc1Cl)C(=O)O [Example 279]	0.008	0.371	2.2	–	–
C[C@H](N)C(=O)NC[C@H](NC(=O)c1ccc(C(=O)NCc2cccc(O)c2)cc1Cl)C(=O)O [Example 280]	0.0031	–	4.2	0.077	–
C[C@H](N)C(=O)NC[C@H](NC(=O)c1ccc(C(=O)NCc2cccc(O)c2)cc1Cl)C(=O)O [Example 281]	–	–	–	0.291	4.45
CC(C)(N)C(=O)NC[C@H](NC(=O)c1ccc(C(=O)NCc2cccc(O)c2)cc1Cl)C(=O)O [Example 282]	0.0046	0.162	1.05	–	–
CNCC(=O)NC[C@H](NC(=O)c1ccc(C(=O)NCc2cccc(O)c2)cc1Cl)C(=O)O [Example 283]	0.0031	0.166	1.5	–	–

Compound	IC50 [1] [µM]	IC50 [2, 4] [µM]	IC50 ([3]; Mus musculus, T-lymphocyte) [µM]	IC50 ([2]; HL-60 cells) [µM]	IC50 [3] [µM]
NC1(C(=O)NC[C@H](NC(=O)c2ccc(C(=O)NCc3cccc(O)c3)cc2Cl)C(=O)O)CCCCC1 [Example 284]	0.0057	0.198	1.13	–	–
N[C@H](C(=O)NC[C@H](NC(=O)c1ccc(C(=O)NCc2cccc(O)c2)cc1Cl)C(=O)O)c1ccccc1 [Example 285]	0.0031	0.135	3.1	–	–
NC[C@H]1CC[C@H](C(=O)NC[C@H](NC(=O)c2ccc(C(=O)NCc3cccc(O)c3)cc2Cl)C(=O)O)CC1 [Example 286]	0.0041	0.074	1.52	–	–
N[C@@H](COCc1ccccc1)C(=O)NC[C@H](NC(=O)c1ccc(C(=O)NCc2cccc(O)c2)cc1Cl)C(=O)O [Example 293]	0.0063	0.29	13.5	–	–
N[C@H]1Cc2ccccc2CN(CC(=O)NC[C@H](NC(=O)c2ccc(C(=O)NCc3cccc(O)c3)cc2Cl)C(=O)O)C1=O [Example 295]	0.0019	0.089	1.62	–	–
O=C(NCc1cccc(O)c1)c1ccc(C(=O)N[C@@H](CNC(=O)[C@@H]2Cc3c([nH]c4ccccc34)CN2)C(=O)O)c(Cl)c1 [Example 296]	0.0034	0.167	4.6	–	–
Cc1cc(C(=O)NCc2cccc(O)c2)ccc1C(=O)N[C@@H](CNC(=O)c1ccccc1)C(=O)O [Example 324]	0.0015	0.032	0.46	–	–
Cc1cc(C(=O)N[C@H](C)c2cccc3ccccc23)ccc1C(=O)N[C@@H](CNC(=O)c1cccs1)C(=O)O [Example 325]	0.0026	0.059	0.965	–	–
Cc1cc(C(=O)N[C@H](C)c2cccc3ccccc23)ccc1C(=O)N[C@@H](CNC(=O)c1ccccc1)C(=O)O [Example 326]	0.0041	0.093	1.5	–	–
O=C(NCc1cccc(O)c1)c1ccc(C(=O)N[C@@H](CNC(=O)c2cccs2)C(=O)O)c(Br)c1 [Example 328, N-[2-bromo-4-[[[(3-hydroxyphenyl)methyl]amino]carbonyl]benzoyl]-3-(thiophene-2-carbonyl)amino-L-alanine]	0.0013	0.028	0.16	–	–
O=C(NCc1cccc(O)c1)c1ccc(C(=O)N[C@@H](CNC(=O)c2cccs2)C(=O)O)c(F)c1 [Example 331]	0.0011	0.068	0.71	–	–
O=C(NCc1cccc(O)c1)c1cc(Cl)c(C(=O)N[C@@H](CNC(=O)c2cccc(Cl)c2)C(=O)O)c(Cl)c1 [Example 348, 3-[(3-chlorobenzoyl)amino]-N-[2,6-dichloro-4-[[[(3-hydroxyphenyl)methyl]amino]carbonyl]benzoyl]-L-alanine]	0.0013	0.0198	0.173	–	–
Cc1cccc(C(=O)NC[C@H](NC(=O)c2c(Cl)cc(C(=O)NCc3cccc(O)c3)cc2Cl)C(=O)O)c1 [Example 352]	0.0012	0.028	0.091	–	–
O=C(NCc1cccc(O)c1)c1cc(Cl)c(C(=O)N[C@@H](CNC(=O)c2sccc2Cl)C(=O)O)c(Cl)c1 [Example 355]	0.0009	0.0177	0.086	–	–
O=C(NCc1cccc(O)c1)c1cc(Cl)c(C(=O)N[C@@H](CNC(=O)c2cc(Br)c(Br)s2)C(=O)O)c(Cl)c1 [Example 356]	0.0034	0.081	1.76	–	–
Cc1ccsc1C(=O)NC[C@H](NC(=O)c1c(Cl)cc(C(=O)NCc2cccc(O)c2)cc1Cl)C(=O)O [Example 357]	0.0005	0.023	0.021	–	–
